These results are taken from US10406127B2, “Solid oral formulation of fenretinide” (LAURENT PHARMACEUTICALS, priority 2014, dated 2019).

Like-named read-outs stand apart in the source and are kept apart here.

Series [1] in a line: Solubility in spray-drying solvents (visually assessed). It is filed as physicochemical. From the text: The solubility of Fenretinide/PVP K30 40/60% w/w mixtures was first visually assessed in various ratios of ethanol/dichloromethane. Thereafter, Spray Dryed Intermediates (SDIs) were produced from Fenretinide/PVP K30 40/60% w/w mixture solubilized at 7.5% w/v in ethanol/dichloromethane 90/10 v/v (L215-01009A), 50/50 v/v (L215-01009B) and 10/90 v/v (L215-01009C) systems for a total batch size of 15 g. The solvent was evaporated using Model GA32 Yamato® Lab Spray Dryer with the following operating parameters: 1.2 mm nozzle; about 9-15 g/min feed rate; 1.5 kg/cm^2 atomization air, and 0.35-0.55 m^3/min air flow. The inlet temperature was adjusted according to the solvent system to maintain an outlet temperature between 50-65° C.
Successive amounts of Fenretinide and PVP K30 40/60% w/w were added in 200 ml of dichloromethane until saturation of the solution. At a total solid loading of 20% w/v (40 g), the addition of Fenretinide and PVP K30 was stopped due to the increase of the solution viscosity. The solution was spray dried (lot L215-01010) with the following process parameters: 11-15 g/min feed rate; 75° C. inlet temperature; 45-48° C. outlet temperature; 0.1-0.3 MPa atomization air, and 0.40 m^3/min air flow.

For series [2] the following is noted: fenretinide in rats; cited from earlier work.

The solubility is how much of the substance goes into solution per volume. Regarding `CC1=C(/C=C/C(C)=C/C=C/C(C)=C/C(=O)Nc2ccc(O)cc2)C(C)(C)CCC1` [Fenretinide, all-trans-N-(4-hydroxyphenyl) retinamide], the solubility was more than 50 mg/mL in series [1] (dichloromethane 100% with PVP K30, organic solvent or mixture, thermodynamic from solid, solubilised with PVP K30 in a ratio of 40/60 w/w, DCM 100%, read-out: solubility of Fenretinide); approximately 34 mg/mL in series [1] (ethanol 100% with PVP K30, organic solvent or mixture, thermodynamic from solid, solubilised with PVP K30 in a ratio of 40/60 w/w, ethanol 100%, read-out: solubility of Fenretinide); more than 50 mg/mL in series [1] (ethanol/dichloromethane 50/50 v/v with PVP K30, organic solvent or mixture, thermodynamic from solid, solubilised with PVP K30 in a ratio of 40/60 w/w, ethanol/DCM 50/50 v/v, read-out: solubility of Fenretinide); “very soluble” in series [1] (mixture of methanol/dichloromethane (1:1)); “very soluble” in series [1] (pure dichloromethane). Further, the “elimination half-life, literature data” value in series [2] is 7 to 10 h.
